In patent EP1299350B1, “SUBSTITUTED BENZAMIDES FOR IMMUNE ENHANCEMENT AND FOR THE TREATMENT OF CANCER, INFECTION AND MANIC-DEPRESSIVE ILLNESS” (Active Biotech AB, priority 2000, dated 2002):

System: AP-1
Experiment: AP-1-driven luciferase reporter gene assay in Jurkat T cell line (Jurkat/AP-1rep), stimulated with phorbol myristate acetate and ionomycin
Format: cell-based
Conditions: Jurkat/AP-1rep cells stimulated for 5.5 h at 37°C with phorbol myristate acetate and ionomycin; luciferase luminescence; Figure 1
Protocol: The compounds of general formula (I) were assayed for AP-1 enhancement. The compounds of this invention were tested in assays for the modulation of stimulated activity of an AP-1-driven reporter gene in the Jurkat T cell line. The activation of this reporter gene results in luciferase production and the amounts of produced luciferase parallels the level of AP-1 activity. A high level of AP-1 activity is pivotal to e.g. high production of IL-2.
Cells from the Jurkat T cell line were transfected with an AP-1-driven luciferase gene reporter construct (Parra et al., 1997) together with a selection gene vector. Selected clones from the resulting stable AP-1 reporter gene transfectants were used in the assays for AP-1 transcription factor activity. These transfected Jurkat cells (Jurkat/AP-1rep) were grown in RPMI 1640 supplemented with glutamine, hepes, sodium pyruvate, gentamicin, 10% FCS and G418. To evaluate distinct compounds for their capacity to enhance the AP-1 activity, Jurkat/AP-1rep cells were stimulated for 5.5 h in the temperature of 37°C with phorbol myristate acetate and ionomycin in the absence and presence of test compounds. The 96 well plates containing the cell cultures were then put on ice until harvested. […] AP-1 activity was measured as luminiscence produced by luciferase substrate, which was added to the wells in conjunction with measurement.

**Q.** `CCN(CC)CCCNC(=O)c1ccc(NC(=O)C(C)C)cc1OC` [Compound A, N-[(3-diethylamino)propyl]-4-isobutyrylamino-2-methoxybenzamide] was tested. Which “activity of the AP-1 driven reporter” value did it give?
**A.** enhance the activity of the AP-1 driven reporter in a dose dependent fashion down to µM concentrations
